Experimental data: US5352705A, “Inhibitors of farnesyl protein transferase” (Merck & Co., Inc., priority 1992, dated 1994)

Experiments:
[1] = target: T1, Farnesyl-protein transferase (Ftase) from bovine brain (Bos taurus, UniProt P29702+P49355); assay: In vitro inhibition of ras farnesyl transferase; format: biochemical; conditions: Ras-CVLS 3.5 μM, 0.25 μM [3H]FPP, partially purified bovine brain enzyme; read-out: IC50 (concentration of compound which gives 50% inhibition of FTase under the described assay conditions)
T1 construct: Farnesyl-protein transferase (Ftase) from bovine brain was chromatographed on DEAE-Sephacel; from tissue; host or cells: bovine brain, partially purified (DEAE-Sephacel, N-octyl agarose, mono Q HPLC)
Description: In vitro inhibition of ras farnesyl transferase
Farnesyl-protein transferase (Ftase) from bovine brain was chromatographed on DEAE-Sephacel (Pharmacia, 0-0.8 M NaC1 gradient elution), N-octyl agarose (Sigma, 0-0.6 M Nacl gradient elution), and a mono Q HPLC column (Pharmacia, 0-0.3 M NaC1 gradient). Ras-CVLS at 3.5 μM, 0.25 μM [3H]FPP, and the indicated compounds were incubated with this partially purified enzyme preparation. The Ftase data presented below is a measurement of the ability of the test compound to inhibit RAS farnesylation in vitro.
*(IC50 is the concentration of compound which gives 50% inhibition o
FTase under the described assay conditions)

Ras farnesylation = conditions: cited from earlier work

| SMILES | IC50 [1] | Inhibition of Ras farnesylation in vivo (Ras farnesylation) |
| --- | --- | --- |
| CC[C@H](C)[C@H](NC[C@@H](N)CS)C(=O)NCc1cccc(Cl)c1Cl [N-[2(R)-Amino-3-mercaptopropyl]-L-isoleucine-2,3-dichlorobenzylamide] | 25 nM | – |
| CC[C@H](C)[C@H](NC[C@@H](N)CS)C(=O)NCCc1cccc(Cl)c1 [N-[2(R)-Amino-3-mercaptopropyl]-L-isoleucine-3-chlorophenethylamide] | 63 nM | – |
| CC[C@H](C)[C@H](NC[C@@H](N)CS)C(=O)Nc1cccc(C)c1C [N-[2(R)-amino-3-mercaptopropyl]-L-isoleucine-2,3-dimethylphenylamide] | 35 nM | – |
| CC[C@H](C)[C@H](NC[C@@H](N)CS)C(=O)Nc1ccccc1 [N-[2(R)-amino-3-mercaptopropyl]-L-isoleucine-anilide] | 63 nM | – |
| CC[C@H](C)C(=O)O[C@H]1CCC=C2C=C[C@H](C)[C@H](CC[C@@H]3C[C@@H](O)CC(=O)O3)[C@H]21 [compactin] | – | Inhibition of Ras farnesylation in vivo has been demonstrated |
| CC[C@H](C)C(=O)O[C@H]1C[C@@H](C)C=C2C=C[C@H](C)[C@H](CC[C@@H]3C[C@@H](O)CC(=O)O3)[C@H]21 [lovastatin] | – | Inhibition of Ras farnesylation in vivo has been demonstrated |
